Reference: patent publication US20230138563A1, “METHODS FOR QUANTIFICATION OF COMPOUNDS IN CULTIVARS OF Cannabis sp” (MEDLEAF BIOTECHNOLOGIES AND GLOBAL RESEARCH AND D[…]., priority 2020, published 2023)
pKd: −log10 of the molar value.

Key:
U87 human glioma cells [1] = conditions: mouse, in vivo; cited from earlier work
[2] = tested on: U87 human glioma cell line; conditions: cited from earlier work
U-87 MG glioma cell = test: single-cell microfluidic intracellular calcium bioassay (Fluo-4 fluorescence); conditions: for [Ca^2+]i: single U-87 MG cell, calculated from fluorescence by eq. 1
Experimental: The current study was designed to investigate the pharmacological potential of CBD on calcium uptake in U87MG glioma cells by a method using a single-cell microfluidic approach.
The glass chip was fabricated through the standard micromachining processes at Canadian Microelectronic Corporation (CMC) by a process that includes standard chip cleaning, thin film deposition, photolithography, photoresist development, hydrofluoric acid wet etching, reservoir forming, and chip bonding, as previously reported (Li et al. 2005). The chip design is shown in FIG. 9, consisting of three reservoirs, three channels and one chamber containing the cell retention structure to isolate the single cell. Reservoir 1 was used for cell introduction and washing, reservoir 2 was used for reagent delivery, and reservoir 3 was a waste reservoir. The channel was 40 μm deep, while the reservoirs were 600 μm deep and 2.5 mm in diameter.
A fluorescent calcium probe, Fluo-4 AM ester (50 μg, special packaging, Molecular Probes, Eugene, Oreg.) was first dissolved in 50 μL of dimethyl sulfoxide (DMSO, 99.9%, Sigma-Aldrich, St. Louis, Mo.) to make a stock solution of 1 μg/μL. Before use, it was freshly diluted in Hanks' balanced salt solution (HBSS, Invitrogen Corp., Grand Island, N.Y.) to make a 5.0 μM working solution. Due to light sensitivity of Fluo-4 AM, it must be stored in the dark at −20° C. Cannabidiol (CBD) was purchased from Cerilliant Corporation (Round Rock, Tex.) as drug enforcement agency-exempt solution, i.e. 1 mg/mL solution in methanol (MeOH). Trypan blue solutions (4%) were purchased from Sigma-Aldrich (St. Louis, Mo.). RPMI 1640 medium solution, trypsin-ethylenediaminetetraacetic acid (Trypsin-EDTA) (0.025%), penicillin-streptomycin and fetal bovine serum (FBS) were obtained from Life Technologies (Grand Island, N.Y.). lonomycin (Calcium salt, Sigma Chemical Co.) was used to saturate the Ca^2+-Fluo-4 fluorescence within the cells. Ionomycin was dissolved in DMSO to make the stock solution which was finally diluted in HBSS containing 1 mM CaCl2 to make working solutions. The glioma cells (U-87 MG) were obtained from ATCC (Manassas, Va.). The cells were maintained in the RPMI medium with 10% fetal bovine serum and 1% penicillin in a 5% CO2 atmosphere at 37° C. and were passaged twice a week.
An optical imaging and fluorescent measurement system was used, as previously described (Li et al., 2009). Briefly, an inverted microscope (TE300, Nikon, Mississauga, ON, Canada) was connected to a video camera (JVC, TK-C3180). A TV set was used for optical observation (FIG. 2). By using a dichroic filter (620 nm), only red light entered the video camera for cell imaging without interfering with the fluorescent measurement. The green fluorescent emission (535 nm) was achieved under the Xenon arc lamp excitation (480 nm) selected by the microphotometer system (PTI) through a detection aperture. The chip was translated back and forth manually so the cellular fluorescence or background signal could be measured.
Before running any experiment, the microfluidic chip was cleaned by soap solution (2 times), rinsed with deionized water (3 to 5 times), and sterilized with 75% ethanol (1 time). After the cleaning step, […] of a cell suspension was introduced into the cell inlet from reservoir 1, the cells flowed from the left to right across the cell retention structure. By adjusting the liquid levels of the right […] (waste) and the left reservoir 1 (cell inlet), a desired U-87 MG cell was slowed down near the entrance of the cell retention structure. As the glioma cell is adherent, it readily becomes stationary to maintain its location in the retention structure. The glioma cell was allowed to settle for about 15 minutes, during which it was attached to the glass chip surface before the fluorescence measurement started.

U87 human glioma cells [3] = conditions: in vitro, dose-dependently, 0.01 up to 9 μM; cited from earlier work
[4] = tested on: U373 human glioma cell line; conditions: cited from earlier work
[5] = read-out: Kd (dissociation constant of the dye); cited from earlier work

In the case of `C=C(C)[C@@H]1CCC(C)=C[C@H]1c1c(O)cc(CCCCC)cc1O` [CBD, cannabidiol], the “viability of U87 human glioma cells in mice” value (U87 human glioma cells [1]) is given as “prohibited”, the mitochondrial oxidative metabolism ([2]; CBD exposure to cells) is given as “reduced” and the antiproliferative effect ([2]; U87) is given as “antiproliferative effects”. The “change of [Ca^2+]i (FIG. 10)” value (U-87 MG glioma cell; 9.5 μM CBD) was “increased slightly”, the “change of [Ca^2+]i (FIG. 10)” value (U-87 MG glioma cell; 19 μM CBD compared to 9.5 μM) was “significantly increased” and the “concentration dependence of intracellular [Ca^2+]i increase” value (U-87 MG glioma cell; CBD 9.5 and 19 μM) was “concentration-dependent manner”. The “cell viability by trypan blue at end of experiment” value (U-87 MG glioma cell; after 9.5 and 19 μM CBD and ionomycin) was “not dead”, the “[Ca^2+]i” value (U-87 MG glioma cell; after 9.5 μM CBD) was 47.9 nM and the “[Ca^2+]i” value (U-87 MG glioma cell; after 19 μM CBD) was 913 nM. The “translocation of U87 human glioma cells” value (U87 human glioma cells [3]) was “inhibited” and the antiproliferative effect [4] was “antiproliferative effects”.
In the case of `Cc1ccc(N(CC(=O)O)CC(=O)O)c(OCCOc2cc(-c3c4cc(F)c(=O)cc-4oc4cc(O)c(F)cc34)ccc2N(CC(=O)O)CC(=O)O)c1` [Fluo-4], the pKd [5] is listed as 6.46.
In the case of `C[C@H](CCC(=O)O)C[C@H](C)C[C@H](C)C(=O)/C=C(\O)[C@H](C)C[C@H](C)C/C=C/[C@@H](C)[C@@H](O)[C@@H](C)[C@@H](O)C[C@@H]1CC[C@@](C)([C@H]2CC[C@@](C)([C@@H](C)O)O2)O1` [ionomycin, Ionomycin], the “fluorescence response after ionomycin (Fmax)” value (U-87 MG glioma cell; 10 μM ionomycin, at ~6000 s) was “obvious fluorescence peak”.
In the case of `C=CC(=C)CCC=C(C)C` [myrcene], the cell calcium response (U-87 MG glioma cell; 10 μM, data not shown) was “not detectable” and the “cell calcium response (FIG. 11)” value (U-87 MG glioma cell; 20 μM, alone) was “a little cell calcium response”.
